The values that follow come from patent publication US8318762B2, “Pyrazolospiroketone acetyl-CoA carboxylase inhibitors” (Pfizer Inc., priority 2008, dated 2012).

One assay concerns the target T1, recombinant human ACC2 (Homo sapiens, UniProt O00763).
T1 construct: a full length Cytomax clone of ACC2 was purchased from Cambridge Bioscience Limited; made in house; host or cells: CHO cells (tetracycline induction, pcDNA5 FRT TO-TOPO); purified on a Softlink Soft Release Avidin column
The experiment in a line: Measurement of human ACC2 inhibition (recombinant hACC2 Transcreener ADP detection FP assay). Format: biochemical. The conditions noted are these: recombinant hACC2 transcreener assay; read-out: rhACC2 IC50. In outline:
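Purified hACC2 from tetracycline-induced CHO cells (avidin-column eluate) was run in 50 mM HEPES pH7.5, 5 mM MgCl2, 5 mM citrate, 2 mM DTT, 0.5 mg/mL BSA with 30 μM acetyl-CoA, 50 μM ATP and 8 mM KHCO3. Reaction lasted 1 hour at room temperature; ADP was detected by Transcreener FP after another 1 hour.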

The test system of assay [1] is malonyl-CoA levels in liver. The assay can be described thus: Acute in vivo assessment of ACC inhibition: malonyl-CoA levels in liver tissue. Also on record: species or system male Sprague-Dawley Rats. The following applies: relative to chow-fed vehicle control group, % decrease +/- SEM. The method, then:
(§1) The ACC inhibitory activity of the compound of the present invention can be confirmed in vivo by evaluation of their ability to reduce malonyl-CoA levels in liver and muscle tissue from treated animals.
(§2) Measurement of malonyl-CoA production inhibition in experimental animals. In this method, male Sprague-Dawley Rats, maintained on standard chow and water ad libitum (225-275 g), were randomized prior to the study. Animals were either fed, or fasted for 18 hours prior to the beginning of the experiment. Two hours into the light cycle the animals were orally dosed with a volume of 5 mL/kg, (0.5% methyl cellulose; vehicle) or with the appropriate compound (prepared in vehicle). Fed vehicle controls were included to determine baseline tissue malonyl-CoA levels while fasted animals were included to determine the effect fasting had on malonyl-CoA levels. One hour after compound administration the animals were asphyxiated with CO2 and the tissues were removed. Specifically, blood was collected by cardiac puncture and placed into BD Microtainer tubes containing EDTA (BD Biosciences, NJ), mixed, and placed on ice. Plasma was used to determine drug exposure. Liver and quadriceps were removed, immediately freeze-clamped, wrapped in foil and stored in liquid nitrogen.
(§3) Tissues were pulverized under liquid N2 to ensure uniformity in sampling. Malonyl-CoA was extracted from the tissue (150-200 mg) with 5 volumes 10% […] in Lysing Matrix A (MP Biomedicals, PN 6910) in a FastPrep FP120 (Thermo Scientific, speed=5.5; for 45 seconds). The supernatant containing malonyl-CoA was removed from the cell debris after centrifugation at 15000×g for 30 minutes (Eppendorf Centrifuge 5402). Samples were stably frozen at −80 C until analysis is completed.
(§4) Analysis of malonyl CoA levels in liver and muscle tissue can be evaluated using the following methodology.
(§5) The method utilizes the following materials: Malonyl-CoA tetralithium salt and malonyl-^13C3-CoA trilithium salt which were purchased from Isotec (Miamisburg, Ohio, USA), sodium perchlorate (Sigma, cat no. 410241), trichloroacetic acid (ACROS, cat no. 42145), phosphoric acid (J. T. Baker, cat no. 0260-01), ammonium formate (Fluke, cat no. 17843), methanol (HPLC grade, J. T. Baker, cat no. 9093-33), and water (HPLC grade, J. T. Baker, 4218-03) were used to make the necessary mobile phases. Strata-X on-line solid phase extraction columns, 25 μm, 20 mm×2.0 mm I.D (cat no. 00M-S033-B0-CB) were obtained from Phenomenex (Torrance, Calif., USA). SunFire C18 reversed-phase columns, 3.5 μm, 100 mm×3.0 mm I.D. (cat no. 186002543) were purchased from Waters Corporation (Milford, Mass., USA).
(§6) This method may be performed utilizing the following equipment. Two-dimensional chromatography using an Agilent 1100 binary pump, an Agilent 1100 quaternary pump and two Valco Cheminert 6-port two position valves. Samples were introduced via a LEAP HTC PAL auto sampler with Peltier cooled stack maintained at 10° C. and a 20 μL sampling loop. The needle wash solutions for the autosampler are 10% trichloroacetic acid in water (w/v) for Wash 1 and 90:10 methanol:water for Wash 2. The analytical column (Sunfire) was maintained at 35° C. using a MicroTech Scientific Micro-LC Column Oven. The eluant was analyzed on an ABI Sciex API3000 triple quadrupole mass spectrometer with Turbo Ion Spray.
(§7) Two-dimensional chromatography was performed in parallel using distinct gradient elution conditions for on-line solid phase extraction and reversed-phase chromatography. The general design of the method was such that the first dimension was utilized for sample clean-up and capture of the analyte of interest followed by a brief coupling of both dimensions for elution from the first dimension onto the second dimension. The dimensions were subsequently uncoupled allowing for gradient elution of the analyte from the second dimension for quantification while simultaneously preparing the first dimension for the next sample in the sequence. […]

The test system of assay [2] is malonyl-CoA levels in muscle tissue. The experiment in a line: Acute in vivo assessment of ACC inhibition: malonyl-CoA levels in muscle tissue (quadriceps). The conditions noted are these: relative to chow-fed vehicle control group, % decrease +/- SEM. Set-up: species or system male Sprague-Dawley Rats. The method, then: as §1, §2, §3, §4, §5, §6, §7

T1 sequence (O00763 whole entry): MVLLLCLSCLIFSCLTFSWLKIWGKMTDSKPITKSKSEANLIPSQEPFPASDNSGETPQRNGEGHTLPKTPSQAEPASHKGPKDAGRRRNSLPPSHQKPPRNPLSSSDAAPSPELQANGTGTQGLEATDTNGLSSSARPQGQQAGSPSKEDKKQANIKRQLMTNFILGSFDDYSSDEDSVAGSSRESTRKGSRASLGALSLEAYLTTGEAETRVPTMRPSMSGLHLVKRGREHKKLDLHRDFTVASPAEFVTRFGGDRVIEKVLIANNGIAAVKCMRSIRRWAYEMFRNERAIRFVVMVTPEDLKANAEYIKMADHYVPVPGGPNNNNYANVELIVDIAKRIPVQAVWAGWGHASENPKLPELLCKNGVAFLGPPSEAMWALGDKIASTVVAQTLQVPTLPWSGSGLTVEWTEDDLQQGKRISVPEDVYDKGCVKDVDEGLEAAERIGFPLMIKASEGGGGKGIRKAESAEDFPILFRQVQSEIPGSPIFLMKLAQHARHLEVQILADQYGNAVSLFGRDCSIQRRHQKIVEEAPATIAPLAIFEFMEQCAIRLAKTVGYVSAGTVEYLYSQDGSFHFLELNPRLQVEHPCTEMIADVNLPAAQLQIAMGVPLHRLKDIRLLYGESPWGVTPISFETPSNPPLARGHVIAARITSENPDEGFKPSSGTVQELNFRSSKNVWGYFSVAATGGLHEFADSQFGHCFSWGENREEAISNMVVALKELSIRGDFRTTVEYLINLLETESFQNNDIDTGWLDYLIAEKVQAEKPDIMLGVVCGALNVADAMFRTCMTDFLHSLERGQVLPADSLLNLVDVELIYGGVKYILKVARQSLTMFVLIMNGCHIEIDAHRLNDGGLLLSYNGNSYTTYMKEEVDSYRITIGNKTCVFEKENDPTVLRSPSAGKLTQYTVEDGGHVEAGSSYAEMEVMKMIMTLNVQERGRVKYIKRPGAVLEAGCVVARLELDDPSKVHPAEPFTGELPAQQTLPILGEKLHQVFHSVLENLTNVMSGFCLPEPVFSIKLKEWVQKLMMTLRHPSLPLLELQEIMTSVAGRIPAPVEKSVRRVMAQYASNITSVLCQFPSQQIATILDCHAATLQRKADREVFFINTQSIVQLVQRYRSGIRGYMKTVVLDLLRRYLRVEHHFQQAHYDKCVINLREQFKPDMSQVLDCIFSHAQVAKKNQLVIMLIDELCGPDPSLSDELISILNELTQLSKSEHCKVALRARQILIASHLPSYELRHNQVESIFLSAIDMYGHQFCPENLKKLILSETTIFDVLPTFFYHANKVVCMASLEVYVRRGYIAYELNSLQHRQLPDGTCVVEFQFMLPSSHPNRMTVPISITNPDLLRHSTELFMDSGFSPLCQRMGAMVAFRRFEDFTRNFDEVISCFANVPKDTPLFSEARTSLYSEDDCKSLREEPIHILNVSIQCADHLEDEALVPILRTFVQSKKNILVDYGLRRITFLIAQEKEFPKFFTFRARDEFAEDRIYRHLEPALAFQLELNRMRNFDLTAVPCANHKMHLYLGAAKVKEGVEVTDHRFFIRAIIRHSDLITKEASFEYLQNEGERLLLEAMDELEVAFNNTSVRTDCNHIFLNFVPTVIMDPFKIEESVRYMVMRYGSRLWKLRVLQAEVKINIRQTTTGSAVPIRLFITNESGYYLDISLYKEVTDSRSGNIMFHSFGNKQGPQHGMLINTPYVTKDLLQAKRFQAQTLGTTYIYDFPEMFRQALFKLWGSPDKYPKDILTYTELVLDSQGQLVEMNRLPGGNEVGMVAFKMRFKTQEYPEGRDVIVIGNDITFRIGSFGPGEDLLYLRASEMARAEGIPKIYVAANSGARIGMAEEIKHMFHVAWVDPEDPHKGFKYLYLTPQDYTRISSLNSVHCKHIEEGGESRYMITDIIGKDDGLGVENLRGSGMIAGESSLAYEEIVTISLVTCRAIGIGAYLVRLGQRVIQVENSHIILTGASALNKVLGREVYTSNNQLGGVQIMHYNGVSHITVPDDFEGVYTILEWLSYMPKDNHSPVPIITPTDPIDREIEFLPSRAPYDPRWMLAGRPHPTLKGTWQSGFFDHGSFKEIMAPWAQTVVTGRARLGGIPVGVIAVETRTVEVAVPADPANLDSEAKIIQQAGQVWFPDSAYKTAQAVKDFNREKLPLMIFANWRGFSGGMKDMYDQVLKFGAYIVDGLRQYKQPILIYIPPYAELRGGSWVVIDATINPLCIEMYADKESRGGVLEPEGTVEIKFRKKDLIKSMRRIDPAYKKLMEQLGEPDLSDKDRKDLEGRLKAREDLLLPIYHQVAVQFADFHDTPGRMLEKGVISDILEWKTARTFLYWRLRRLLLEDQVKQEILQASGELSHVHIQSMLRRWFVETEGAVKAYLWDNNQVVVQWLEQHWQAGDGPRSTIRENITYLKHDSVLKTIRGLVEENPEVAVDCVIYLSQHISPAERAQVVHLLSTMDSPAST

One may read the IC50 as the concentration needed to halve the response being measured. Regarding `CCn1nc2c(c1C)OC1(CCN(C(=O)c3cc(C)c4[nH]nc(C)c4c3)CC1)CC2=O` [1.001], the IC50 on recombinant human ACC2 stood at 11 nM. In addition, the “Percent decrease in Liver Malonyl-CoA” value was 28.29 (8.40) % in assay [1] (dose 1 mg/kg), 30.37 (11.50) % in assay [1] (dose 3 mg/kg), 45.45 (3.51) % in assay [1] (dose 10 mg/kg) and 54.31 (7.63) % in assay [1] (dose 30 mg/kg). Also, the “Percent decrease in Muscle Malonyl-CoA (quadriceps)” value (“Percent decrease … (quadriceps)” below) is reported as 5.69 (8.73) % in assay [2] (dose 1 mg/kg), 2.90 (4.29) % in assay [2] (dose 3 mg/kg), 22.83 (5.72) % in assay [2] (dose 10 mg/kg) and 48.03 (2.63) % in assay [2] (dose 30 mg/kg).
In the case of `CCn1cc2c(n1)C(=O)CC1(CCN(C(=O)c3cc(C)c4[nH]nc(C)c4c3)CC1)O2` [1.003], at recombinant human ACC2, the IC50 worked out at 11 nM. The “Percent decrease in Liver Malonyl-CoA” value in assay [1] (dose 1 mg/kg) was 31.45 (4.12) %; in assay [1] (dose 3 mg/kg) it was 47.61 (4.70) %; in assay [1] (dose 10 mg/kg), 67.40 (5.67) %; in assay [1] (dose 30 mg/kg) it was 70.47 (2.48) %. The “Percent decrease … (quadriceps)” value in assay [2] (dose 1 mg/kg) is −3.72 (8.87) %; in assay [2] (dose 3 mg/kg), 21.23 (8.81) %; in assay [2] (dose 10 mg/kg) it was 33.30 (4.83) %; in assay [2] (dose 30 mg/kg) it was 48.81 (3.51) %.
On to `Cc1n[nH]c2c(C)cc(C(=O)N3CCC4(CC3)CC(=O)c3nn(C(C)(C)C)cc3O4)cc12` [1.012], for which the IC50 at recombinant human ACC2 is 2 nM. The “Percent decrease in Liver Malonyl-CoA” value in assay [1] (dose 1 mg/kg) was 40.32 (6.24) %; in assay [1] (dose 3 mg/kg), 54.87 (3.22) %; in assay [1] (dose 10 mg/kg), 75.72 (2.47) %; in assay [1] (dose 30 mg/kg), 86.52 (1.49) %. Moreover, the “Percent decrease … (quadriceps)” value in assay [2] (dose 1 mg/kg) is 31.53 (3.58) %; in assay [2] (dose 3 mg/kg) it was 43.01 (4.24) %; in assay [2] (dose 10 mg/kg), 59.48 (5.28) %; in assay [2] (dose 30 mg/kg) it was 71.08 (2.18) %.
With `Cc1cc(C(=O)N2CCC3(CC2)CC(=O)c2nn(C(C)(C)C)cc2O3)cc2cn[nH]c12` [1.042], at recombinant human ACC2, the concentration for half-maximal inhibition (IC50) was determined as 4 nM. Moreover, the “Percent decrease in Liver Malonyl-CoA” value was 41.87 (2.70) % in assay [1] (dose 1 mg/kg), 48.07 (8.08) % in assay [1] (dose 3 mg/kg), 71.81 (2.36) % in assay [1] (dose 10 mg/kg) and 86.50 (0.72) % in assay [1] (dose 30 mg/kg). In addition, the “Percent decrease … (quadriceps)” value in assay [2] (dose 1 mg/kg) is 29.90 (5.21) %; in assay [2] (dose 3 mg/kg), 27.60 (5.87) %; in assay [2] (dose 10 mg/kg), 61.60 (5.38) %; in assay [2] (dose 30 mg/kg) it was 74.70 (1.37) %.
Take `CC(C)(C)n1cc2c(n1)C(=O)CC1(CCN(C(=O)c3ccc4ncccc4c3)CC1)O2` [15.002]: the IC50 on recombinant human ACC2 came to 11 nM.
Still for that read-out and setting: the value for `CCn1nc2c(c1C)OC1(CCN(C(=O)c3ccc4ncccc4c3)CC1)CC2=O` [15.003] was 179 nM.
Still for that read-out and setting: the figure for `CC(C)(C)n1cc2c(n1)C(=O)CC1(CCN(C(=O)c3ccc4cccnc4c3)CC1)O2` [16.001] is 12 nM.
On the same count and under the same terms, the value for `CCn1nc2c(c1C)OC1(CCN(C(=O)c3ccc4cccnc4c3)CC1)CC2=O` [16.002] was 250 nM.
In the case of `CC(C)(C)n1cc2c(n1)C(=O)CC1(CCN(C(=O)c3ccc4occc4c3)CC1)O2` [17.001], the IC50 on recombinant human ACC2 came out at 33 nM.
Still for that read-out and setting: the value for `CCn1nc2c(c1C)OC1(CCN(C(=O)c3ccc4occc4c3)CC1)CC2=O` [17.002] was 283 nM; that for `Cn1ccc2ccc(C(=O)N3CCC4(CC3)CC(=O)c3nn(C(C)(C)C)cc3O4)cc21` [18.001] was 3 nM; that for `CCn1nc2c(c1C)OC1(CCN(C(=O)c3ccc4ccn(C)c4c3)CC1)CC2=O` [18.002] was 33 nM.
Still for that read-out and setting: the figure for `CC(C)(C)n1cc2c(n1)C(=O)CC1(CCN(C(=O)c3ccc4c(=O)[nH]ccc4c3)CC1)O2` [19.001] is 9 nM.
On to `CC(C)(C)n1cc2c(n1)C(=O)CC1(CCN(C(=O)c3ccc4[nH]c(=O)oc4c3)CC1)O2` [20.001], for which, on recombinant human ACC2, the IC50 came out at 28 nM.
Still for that read-out and setting: the figure for `CC(C)(C)n1cc2c(n1)C(=O)CC1(CCN(C(=O)c3ccc4cc[nH]c(=O)c4c3)CC1)O2` [21.001] is 16 nM.
`CC(C)n1cc2c(n1)C(=O)CC1(CCN(C(=O)c3ccc4oncc4c3)CC1)O2` [22.001]: the IC50 at recombinant human ACC2 was over 1000 nM.
On the same count and under the same terms, the value for `CC(C)(C)n1cc2c(n1)C(=O)CC1(CCN(C(=O)c3ccc4oncc4c3)CC1)O2` [22.002] was 518 nM.
On the same count and under the same terms, the figure for `CCn1nc2c(c1C)OC1(CCN(C(=O)c3ccc4oncc4c3)CC1)CC2=O` [22.003] is over 1000 nM.
`Cc1noc2cc(C(=O)N3CCC4(CC3)CC(=O)c3nn(C(C)C)cc3O4)ccc12` [23.001]: the half-maximal inhibitory concentration (IC50) on recombinant human ACC2 stood at 585 nM.
On the same count and under the same terms, the figure for `Cc1noc2cc(C(=O)N3CCC4(CC3)CC(=O)c3nn(C(C)(C)C)cc3O4)ccc12` [23.002] is 55 nM; for `CCn1nc2c(c1C)OC1(CCN(C(=O)c3ccc4c(C)noc4c3)CC1)CC2=O` [23.003] it is 335 nM.
On the same count and under the same terms, the figure for `CC(C)n1cc2c(n1)C(=O)CC1(CCN(C(=O)c3ccc4cnoc4c3)CC1)O2` [23.004] is over 1000 nM; for `CC(C)(C)n1cc2c(n1)C(=O)CC1(CCN(C(=O)c3ccc4cnoc4c3)CC1)O2` [23.005] it is 158 nM.
The same measure, in the same setting: the value for `CC(C)(C)n1cc2c(n1)C(=O)CC1(CCN(C(=O)c3ccc4cnsc4c3)CC1)O2` [24.001] was 23 nM.
Turning to `CC(C)n1cc2c(n1)C(=O)CC1(CCN(C(=O)c3ccc4cnsc4c3)CC1)O2` [24.002], the IC50 at recombinant human ACC2 was determined as 198 nM.
As for `CCn1nc2c(c1C)OC1(CCN(C(=O)c3ccc4cnsc4c3)CC1)CC2=O` [24.003], the IC50 on recombinant human ACC2 is 411 nM.
Same read-out and setting: the value for `CCn1nc2c(c1C)OC1(CCN(C(=O)c3ccc4nn(C)cc4c3)CC1)CC2=O` [25.004] was 122 nM.
The same measure, in the same setting: the value for `Cc1c2c(nn1C)C(=O)CC1(CCN(C(=O)c3ccc4nn(C)cc4c3)CC1)O2` [25.005] was 1540 nM.
